Laboratory results: ChEMBL document CHEMBL4837225, “Water-soluble derivatives of evodiamine: Discovery of evodiamine-10-phosphate as an orally active antitumor lead compound” (Eur J Med Chem, 2021)
pIC50: −log10 of the molar value.

Key:
[1] = tested on: HCT-116; assay: Cell cycle arrest in human HCT-116 cells assessed as accumulation at G1 phase at 0.1 uM incubated for 24 hrs by propidium iodide staining based flow cytometric analysis (Rvb =35.7 %); assay type: functional
[2] = tested on: A549; assay: Antiproliferative activity against human A549 cells assessed as inhibition of cell proliferation incubated for 72 hrs by CCK8 assay; assay type: functional, cell-based; details: A549, 72 h
[3] = tested on: HCT-116; assay: Induction of apoptosis in human HCT-116 cells assessed as late apoptotic cells level at 0.05 uM incubated for 48 hrs by annexin V-FITC/propidium iodide staining based flow cytometry (reference value: 1.87%); assay type: functional
[4] = Toxicity in BALB/c nude mouse xenografted with human A549 cells assessed as effect on body weight at 150 mg/kg, po bid for 14 days; assay type: organism-based; details: in vivo, 336 h, time 14 day
[5] = tested on: HCT-116; assay: Antitumor activity against human HCT-116 cells xenografted in BALB/c nude mouse assessed as inhibition of tumor growth at 60 mg/kg, po BID administered for 21 days measured by caliper relative to control; assay type: functional; details: HCT-116, po, 504 h, time 21 day, read-out: TGI
[6] = tested on: HCT-116; assay: Antitumor activity against human HCT-116 cells xenografted in iv dosed BALB/c nude mouse assessed as inhibition of tumor growth measured by caliper relative to control; assay type: functional
[7] = Toxicity in BALB/c nude mouse xenografted with human A549 cells assessed as morphological changes in liver at 150 mg/kg, po bid by H&E staining based light microscopic analysis; assay type: organism-based; details: in vivo
[8] = Solubility of the compound in PBS buffer at pH 7.4; assay type: physicochemical
[9] = tested on: HCT-116; assay: Induction of apoptosis in human HCT-116 cells assessed as early apoptotic cells level at 0.05 uM incubated for 48 hrs by annexin V-FITC/propidium iodide staining based flow cytometry (reference value: 2.02%); assay type: functional
[10] = target: DNA topoisomerase 2-alpha (Homo sapiens) (UniProt P11388); assay: Inhibition of TOP2 (unknown origin) by ethidium bromide staining based gel electrophoresis
Chain of DNA topoisomerase 2-alpha (Homo sapiens) (P11388 whole entry): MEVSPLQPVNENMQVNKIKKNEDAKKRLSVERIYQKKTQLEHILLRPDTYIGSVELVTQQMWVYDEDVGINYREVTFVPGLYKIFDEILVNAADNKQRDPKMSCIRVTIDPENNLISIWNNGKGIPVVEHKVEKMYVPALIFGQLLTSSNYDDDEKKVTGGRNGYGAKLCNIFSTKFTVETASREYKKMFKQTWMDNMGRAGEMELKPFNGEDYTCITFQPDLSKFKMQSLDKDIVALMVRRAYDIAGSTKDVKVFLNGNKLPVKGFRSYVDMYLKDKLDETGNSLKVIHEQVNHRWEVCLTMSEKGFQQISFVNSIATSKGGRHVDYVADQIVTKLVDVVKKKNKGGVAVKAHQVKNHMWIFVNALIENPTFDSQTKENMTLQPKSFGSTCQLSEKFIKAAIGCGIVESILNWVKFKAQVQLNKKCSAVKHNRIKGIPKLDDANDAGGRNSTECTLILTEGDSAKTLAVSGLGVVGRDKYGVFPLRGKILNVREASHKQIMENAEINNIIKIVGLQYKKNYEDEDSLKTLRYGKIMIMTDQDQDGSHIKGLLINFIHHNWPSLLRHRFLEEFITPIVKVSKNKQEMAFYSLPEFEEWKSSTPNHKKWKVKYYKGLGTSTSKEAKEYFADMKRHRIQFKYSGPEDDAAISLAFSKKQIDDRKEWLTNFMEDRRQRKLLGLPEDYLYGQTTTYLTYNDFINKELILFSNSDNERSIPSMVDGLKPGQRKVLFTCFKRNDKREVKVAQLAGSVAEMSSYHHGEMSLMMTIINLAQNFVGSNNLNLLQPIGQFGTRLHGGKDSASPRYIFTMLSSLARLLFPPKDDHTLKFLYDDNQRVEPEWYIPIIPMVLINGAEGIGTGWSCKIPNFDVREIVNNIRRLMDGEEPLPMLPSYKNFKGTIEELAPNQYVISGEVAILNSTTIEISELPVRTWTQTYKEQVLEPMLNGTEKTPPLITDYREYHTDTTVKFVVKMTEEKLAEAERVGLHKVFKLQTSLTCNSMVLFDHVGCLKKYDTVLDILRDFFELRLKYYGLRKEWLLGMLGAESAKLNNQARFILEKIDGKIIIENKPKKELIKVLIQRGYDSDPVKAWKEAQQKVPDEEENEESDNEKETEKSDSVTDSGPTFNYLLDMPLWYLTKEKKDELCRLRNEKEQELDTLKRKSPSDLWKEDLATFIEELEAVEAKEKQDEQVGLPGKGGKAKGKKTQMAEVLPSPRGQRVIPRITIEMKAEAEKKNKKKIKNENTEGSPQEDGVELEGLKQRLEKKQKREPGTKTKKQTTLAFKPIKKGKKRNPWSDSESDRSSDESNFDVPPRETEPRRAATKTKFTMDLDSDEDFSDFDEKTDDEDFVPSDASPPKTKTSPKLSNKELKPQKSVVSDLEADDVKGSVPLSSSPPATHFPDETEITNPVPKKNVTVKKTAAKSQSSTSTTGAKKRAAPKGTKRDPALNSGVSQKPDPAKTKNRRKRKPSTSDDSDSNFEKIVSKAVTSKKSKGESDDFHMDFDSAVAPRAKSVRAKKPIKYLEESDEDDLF

pIC50 [2]: 5.59 | solubility [8]: > 1000 µg/mL | inhibition [10]: Dose-Dependent Effect
SMILES: CN1c2ccccc2C(=O)N2CCc3c([nH]c4ccc(OP(=O)(O)O)cc34)C21 (stereo not given)
Activity [1]: 6% | Activity [3]: 8.45% | Activity [4]: Non-Toxic | inhibition in vivo at 60 mg/kg [5]: 48% | TGI [6]: 45% | Activity [7]: Non-Toxic | Activity [9]: 15.1%
